This passage reports solubility results from patent publication US20050095287A1, “Fosinopril composition” (priority 2003, published 2005).

The data set is described as follows: Solubility of the active drug (statement). It counts as physicochemical.

Take `CCC(=O)O[C@@H](O[P@](=O)(CCCCc1ccccc1)CC(=O)N1C[C@H](C2CCCCC2)C[C@H]1C(=O)O)C(C)C` [Fosinipril, Fosinopril]: the solubility entry was “highly soluble”.
